#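 GI50 = concentration required for 50% inhibition of growth. TGI: concentration producing complete growth inhibition.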
# Tests used:
# Test in all cases: NCI-60 cell line screen, 384-well format
# [1] = test system: 786-0 renal
# [2] = test system: A498 renal
# [3] = test system: A549 NSCLC
# [4] = test system: ACHN renal
# [5] = test system: BT-549 breast
# [6] = test system: CAKI-1 renal
# [7] = test system: COLO 205 colon
# [8] = test system: DU-145 prostate
# [9] = test system: EKVX NSCLC
# [10] = test system: HCC-2998 colon
# [11] = test system: HCT-15 colon
# [12] = test system: HL-60(TB) leukemia
# [13] = test system: HOP-62 NSCLC
# [14] = test system: HOP-92 NSCLC
# [15] = test system: HS 578T breast
# [16] = test system: HT29 colon
# [17] = test system: IGROV1 ovarian
# [18] = test system: K-562 leukemia
# [19] = test system: KM12 colon
# [20] = test system: LOX IMVI melanoma
# [21] = test system: M14 melanoma
# [22] = test system: MALME-3M melanoma
# [23] = test system: MCF7 breast
# [24] = test system: MDA-MB-231 breast
# [25] = test system: MDA-MB-435 melanoma
# [26] = test system: MDA-MB-468 breast
# [27] = test system: MOLT-4 leukemia
# [28] = test system: NCI-H226 lung
# [29] = test system: NCI-H23 lung
# [30] = test system: NCI-H322M lung
# [31] = test system: NCI-H460 NSCLC
# [32] = test system: NCI-H522 lung
# [33] = test system: NCI/ADR-RES ovarian
# [34] = test system: OVCAR-3 ovarian
# [35] = test system: OVCAR-4 ovarian
# [36] = test system: OVCAR-5 ovarian
# [37] = test system: OVCAR-8 ovarian
# [38] = test system: PC-3 prostate
# [39] = test system: RPMI-8226 leukemia
# [40] = test system: RXF 393 renal
# [41] = test system: SF-268 CNS
# [42] = test system: SF-295 CNS
# [43] = test system: SF-539 CNS
# [44] = test system: SK-MEL-28 melanoma
# [45] = test system: SK-MEL-5 melanoma
# [46] = test system: SK-OV-3 ovarian
# [47] = test system: SN12C renal
# [48] = test system: SNB-19 CNS
# [49] = test system: SNB-75 CNS
# [50] = test system: SR leukemia
# [51] = test system: SW-620 colon
# [52] = test system: T-47D breast
# [53] = test system: TK-10 renal
# [54] = test system: U251 glioblastoma
# [55] = test system: UACC-257 melanoma
# [56] = test system: UACC-62 melanoma
# [57] = test system: UO-31 renal
structure (smiles),measurement,setting,value
C[C@@]1(C(=O)Nc2ccc(F)nc2)CCCN1c1nc(Nc2cc(C3CC3)[nH]n2)c2cccn2n1,GI50,[1],2.12 µM
same,TGI,[1],11.3 µM
same,GI50,[2],1.72 µM
same,TGI,[2],17.1 µM
same,GI50,[3],0.63 µM
same,TGI,[3],15.4 µM
same,GI50,[4],2.43 µM
same,TGI,[4],16 µM
same,GI50,[5],1.71 µM
same,TGI,[5],7.62 µM
same,GI50,[6],1.3 µM
same,TGI,[6],5.28 µM
same,GI50,[7],< 0.01 µM
same,TGI,[7],0.189 µM
same,GI50,[8],0.995 µM
same,TGI,[8],12.5 µM
same,GI50,[9],0.681 µM
same,TGI,[9],9.59 µM
same,GI50,[10],10.6 µM
same,TGI,[10],22.7 µM
same,GI50,[11],0.703 µM
same,TGI,[11],12.2 µM
same,GI50,[12],< 0.01 µM
same,TGI,[12],0.126 µM
same,GI50,[13],1.87 µM
same,TGI,[13],13.2 µM
same,GI50,[14],0.289 µM
same,TGI,[14],2.68 µM
same,GI50,[15],1.51 µM
same,TGI,[15],3.8 µM
same,GI50,[16],< 0.01 µM
same,TGI,[16],10.5 µM
same,GI50,[17],1.72 µM
same,TGI,[17],7.19 µM
same,GI50,[18],3.81 µM
same,TGI,[18],15.4 µM
same,GI50,[19],0.03 µM
same,TGI,[19],0.204 µM
same,GI50,[20],1.93 µM
same,TGI,[20],13 µM
same,GI50,[21],1.7 µM
same,TGI,[21],16.8 µM
same,GI50,[22],0.356 µM
same,TGI,[22],16.6 µM
same,GI50,[23],0.0388 µM
same,TGI,[23],12.4 µM
same,GI50,[24],1.58 µM
same,TGI,[24],12.5 µM
same,GI50,[25],14.4 µM
same,TGI,[25],27.6 µM
same,GI50,[26],0.246 µM
same,TGI,[26],0.561 µM
same,GI50,[27],0.224 µM
same,TGI,[27],0.439 µM
same,GI50,[28],0.557 µM
same,TGI,[28],7.05 µM
same,GI50,[29],0.223 µM
same,TGI,[29],3.87 µM
same,GI50,[30],3.87 µM
same,TGI,[30],20.1 µM
same,GI50,[31],0.239 µM
same,TGI,[31],1.17 µM
same,GI50,[32],0.864 µM
same,TGI,[32],7.46 µM
same,GI50,[33],2.36 µM
same,TGI,[33],10.7 µM
same,GI50,[34],0.842 µM
same,TGI,[34],9.82 µM
same,GI50,[35],0.935 µM
same,TGI,[35],4.21 µM
same,GI50,[36],1.5 µM
same,TGI,[36],8.62 µM
same,GI50,[37],4.09 µM
same,TGI,[37],18.7 µM
same,GI50,[38],2.67 µM
same,TGI,[38],14.4 µM
same,GI50,[39],0.201 µM
same,TGI,[39],0.491 µM
same,GI50,[40],2.25 µM
same,TGI,[40],12.7 µM
same,GI50,[41],1.44 µM
same,TGI,[41],6.55 µM
same,GI50,[42],0.837 µM
same,TGI,[42],4.19 µM
same,GI50,[43],1.91 µM
same,TGI,[43],11 µM
same,GI50,[44],10.6 µM
same,TGI,[44],22.7 µM
same,GI50,[45],1.78 µM
same,TGI,[45],15.9 µM
same,GI50,[46],2.69 µM
same,TGI,[46],14 µM
same,GI50,[47],2.07 µM
same,TGI,[47],6.96 µM
same,GI50,[48],8.33 µM
same,TGI,[48],29.3 µM
same,GI50,[49],1.14 µM
same,TGI,[49],3.57 µM
same,GI50,[50],0.18 µM
same,TGI,[50],0.336 µM
same,GI50,[51],0.644 µM
same,TGI,[51],14.4 µM
same,GI50,[52],0.651 µM
same,TGI,[52],14.3 µM
same,GI50,[53],2.49 µM
same,TGI,[53],20.1 µM
same,GI50,[54],5.48 µM
same,TGI,[54],19.4 µM
same,GI50,[55],0.694 µM
same,TGI,[55],16.4 µM
same,GI50,[56],1.75 µM
same,TGI,[56],15.7 µM
same,GI50,[57],3.75 µM
same,TGI,[57],18.2 µM
